In patent publication US20050215551A1, “1-[2H-1-benzopyran-2-one-8-yl]- piperazine derivatives for the treatment of movement disorders” (SOLVAY PHARMACEUTICALS B.V., priority 2004, published 2005):

How the values were obtained:
Glycine strychn. insens. = Glycine strychn. insens. (Rattus norvegicus, UniProt P35439); experiment: Receptor binding Glycine strychn. insens.; settings: radioligand [3H]-MDL105519, read-out: Ki(nM) Compound 1
Procedure: (§1) Receptor binding data were obtained by CEREP (128, rue Danton, 92500 Rueil-Malmaison, France) or at Solvay Pharmaceuticals B.V., using well documented standard procedures. Affinity for 5-HT1A receptors for instance, was determined by testing the ability of the compounds of the invention to displace [^3H]-2-(di-n-propylamino)-8-hydroxytetralin ([^3H]-8-OH-DPAT) from its specific binding sites in rat frontal cortex homogenates. This test is based on the method described by Gozlan et al. (Nature, 305, (1983), pages 140-142).
(§2) The binding data collected in the table below were either obtained by CEREP (128, rue Danton, 92500 Rueil-Malmaison, France) or at Solvay Pharmaceuticals B.V., using well documented standard procedures.

Dopamine-D4 = Dopamine-D4 (Homo sapiens, UniProt P21917); experiment: Receptor binding Dopamine-D4; settings: radioligand [3H]-spiperone, read-out: Ki(nM) Compound 1
Dopamine-D4, sequence (P21917 whole entry): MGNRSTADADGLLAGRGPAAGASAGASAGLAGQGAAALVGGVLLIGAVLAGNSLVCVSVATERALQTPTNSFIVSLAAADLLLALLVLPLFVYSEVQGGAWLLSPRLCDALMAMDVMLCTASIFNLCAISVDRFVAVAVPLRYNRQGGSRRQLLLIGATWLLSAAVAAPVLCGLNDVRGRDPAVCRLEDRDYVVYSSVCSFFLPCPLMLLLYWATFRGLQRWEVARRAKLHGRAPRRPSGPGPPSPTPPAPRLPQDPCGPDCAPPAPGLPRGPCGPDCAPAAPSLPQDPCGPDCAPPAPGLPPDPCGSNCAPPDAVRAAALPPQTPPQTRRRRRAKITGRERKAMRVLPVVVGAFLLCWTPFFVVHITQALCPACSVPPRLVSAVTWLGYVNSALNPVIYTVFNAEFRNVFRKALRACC
Procedure: as §1, §2

CCR1 = CCR1 (Homo sapiens, UniProt P32246); experiment: Receptor binding CCR1; settings: radioligand [125I]-MIP-1a, read-out: Ki(nM) Compound 1
CCR1, sequence (P32246 whole entry): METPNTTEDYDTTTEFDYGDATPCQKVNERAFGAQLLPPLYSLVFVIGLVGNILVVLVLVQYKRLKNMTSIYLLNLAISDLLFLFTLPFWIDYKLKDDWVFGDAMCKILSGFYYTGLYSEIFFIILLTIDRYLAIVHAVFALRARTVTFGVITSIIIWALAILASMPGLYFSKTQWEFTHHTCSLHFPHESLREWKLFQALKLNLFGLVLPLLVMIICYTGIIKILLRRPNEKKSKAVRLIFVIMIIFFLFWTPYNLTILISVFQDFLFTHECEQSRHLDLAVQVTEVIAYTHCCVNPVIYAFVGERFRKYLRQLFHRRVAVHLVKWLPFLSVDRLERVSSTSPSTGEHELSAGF
Procedure: as §1, §2

CRF = CRF (Homo sapiens, UniProt P34998); experiment: Receptor binding CRF; settings: radioligand [125I]-oCRF, read-out: Ki(nM) Compound 1
CRF, sequence (P34998 24-415): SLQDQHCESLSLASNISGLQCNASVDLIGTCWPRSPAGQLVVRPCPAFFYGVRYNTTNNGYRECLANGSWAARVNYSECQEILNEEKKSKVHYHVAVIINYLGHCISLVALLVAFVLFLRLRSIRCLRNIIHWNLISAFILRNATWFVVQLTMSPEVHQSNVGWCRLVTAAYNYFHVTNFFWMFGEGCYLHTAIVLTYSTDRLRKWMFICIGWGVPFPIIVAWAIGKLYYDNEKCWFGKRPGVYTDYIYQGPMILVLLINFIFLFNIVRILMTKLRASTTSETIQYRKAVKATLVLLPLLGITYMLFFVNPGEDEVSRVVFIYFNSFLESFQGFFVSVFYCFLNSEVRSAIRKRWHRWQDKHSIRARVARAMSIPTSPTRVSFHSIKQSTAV
Procedure: as §1, §2

GDNF = experiment: Induction of growth factors: GDNF RNA in brain areas by quantitative PCR; type: in vivo; settings: 3 mg/kg p.o. once daily, 3 weeks
Procedure: Compounds of the invention (3 mg/kg, p.o.) or vehicle are administered once daily during a period of 3 weeks (n=8 animals per treatment group). 24 hours after the last dose the animals are sacrificed (using CO2/O2 anesthesia), the brains are removed and the dissected. RNA is extracted from the individual brain samples and induction of the growth factors BDNF and GDNF is determined by quantitative PCR. Total RNA is isolated with the Trizol method (Invitrogen) from the brain pieces. cDNA is made starting with 2 μg of total RNA (pretreated for 30 min with DNAse (Ambion) in first strand buffer) using the reverse transcriptase Superscript II (Invitrogen). Quantification of […] by real time PCR makes use of the observation that the early cycles of PCR are characterized by an exponential increase in target amplification. The accumulation of PCR product is measured using Sybergreen II. Primers are designed using the software package Primer Express (Applied Biosystems). Expression levels of the housekeeping genes ornithine decarboxylase (ODC_ex8) and alpha tubulin (TUBA) used for normalization and as control for good cDNA synthesis.

5-HTreuptake = 5-HTreuptake (Homo sapiens, UniProt P31645); experiment: Binding 5-HT reuptake; settings: radioligand [3H]-paroxetine, read-out: Ki(nM) Compound 1
5-HTreuptake, sequence (P31645 whole entry): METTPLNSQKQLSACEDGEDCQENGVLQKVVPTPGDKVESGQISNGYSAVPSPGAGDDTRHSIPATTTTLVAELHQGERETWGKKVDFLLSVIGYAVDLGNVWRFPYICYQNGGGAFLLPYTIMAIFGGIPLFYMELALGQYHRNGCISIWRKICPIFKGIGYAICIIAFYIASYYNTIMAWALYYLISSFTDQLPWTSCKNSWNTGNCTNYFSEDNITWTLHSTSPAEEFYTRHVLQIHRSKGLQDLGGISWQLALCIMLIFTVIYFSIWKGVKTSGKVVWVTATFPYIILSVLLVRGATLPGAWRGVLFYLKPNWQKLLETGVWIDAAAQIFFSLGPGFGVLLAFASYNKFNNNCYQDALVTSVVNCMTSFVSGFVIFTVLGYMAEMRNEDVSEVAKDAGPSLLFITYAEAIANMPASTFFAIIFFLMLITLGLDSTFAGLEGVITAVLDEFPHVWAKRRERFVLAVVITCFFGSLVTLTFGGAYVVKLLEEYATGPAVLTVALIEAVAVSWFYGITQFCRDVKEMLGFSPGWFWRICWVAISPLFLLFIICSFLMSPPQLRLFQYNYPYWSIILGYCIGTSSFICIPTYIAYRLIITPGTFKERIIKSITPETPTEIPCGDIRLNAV
Procedure: as §1, §2

Vasopressine-V1A = Vasopressine-V1A (Homo sapiens, UniProt P37288); experiment: Receptor binding Vasopressine-V1A; settings: radioligand [3H]-vasopressine, read-out: Ki(nM) Compound 1
Vasopressine-V1A, sequence (P37288 whole entry): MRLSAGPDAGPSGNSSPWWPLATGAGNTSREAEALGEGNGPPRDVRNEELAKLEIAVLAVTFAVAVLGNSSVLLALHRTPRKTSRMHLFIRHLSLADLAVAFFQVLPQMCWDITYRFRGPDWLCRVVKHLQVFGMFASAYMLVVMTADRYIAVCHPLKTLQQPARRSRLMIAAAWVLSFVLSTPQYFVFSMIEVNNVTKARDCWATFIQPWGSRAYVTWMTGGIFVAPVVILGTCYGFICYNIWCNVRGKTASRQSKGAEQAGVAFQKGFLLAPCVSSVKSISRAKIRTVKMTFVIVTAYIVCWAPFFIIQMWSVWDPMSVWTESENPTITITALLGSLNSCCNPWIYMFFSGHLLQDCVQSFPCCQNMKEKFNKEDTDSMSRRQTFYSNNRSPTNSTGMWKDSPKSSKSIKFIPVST
Procedure: as §1, §2

5-HT2B = 5-HT2B (Homo sapiens, UniProt P41595); experiment: Receptor binding 5-HT2B; settings: radioligand [3H]-LSD, read-out: Ki(nM) Compound 1
5-HT2B, sequence (P41595 whole entry): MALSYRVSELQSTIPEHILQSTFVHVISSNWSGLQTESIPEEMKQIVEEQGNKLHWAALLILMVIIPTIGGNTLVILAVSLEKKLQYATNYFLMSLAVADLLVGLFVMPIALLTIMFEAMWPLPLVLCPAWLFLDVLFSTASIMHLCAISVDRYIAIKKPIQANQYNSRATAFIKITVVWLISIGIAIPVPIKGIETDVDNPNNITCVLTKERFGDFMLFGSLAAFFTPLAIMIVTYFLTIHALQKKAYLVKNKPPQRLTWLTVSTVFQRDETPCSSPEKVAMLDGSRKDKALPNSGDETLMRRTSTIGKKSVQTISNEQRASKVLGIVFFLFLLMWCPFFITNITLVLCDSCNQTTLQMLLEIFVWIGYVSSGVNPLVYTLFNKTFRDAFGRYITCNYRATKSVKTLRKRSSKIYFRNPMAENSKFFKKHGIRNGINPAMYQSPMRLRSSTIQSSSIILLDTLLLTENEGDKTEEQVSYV
Procedure: as §1, §2

nicotine = nicotine (Rattus norvegicus, UniProt P09483+P12390); experiment: Receptor binding nicotine; settings: radioligand [3H]-cytisine, read-out: Ki(nM) Compound 1
nicotine, sequence (P12390 25-500): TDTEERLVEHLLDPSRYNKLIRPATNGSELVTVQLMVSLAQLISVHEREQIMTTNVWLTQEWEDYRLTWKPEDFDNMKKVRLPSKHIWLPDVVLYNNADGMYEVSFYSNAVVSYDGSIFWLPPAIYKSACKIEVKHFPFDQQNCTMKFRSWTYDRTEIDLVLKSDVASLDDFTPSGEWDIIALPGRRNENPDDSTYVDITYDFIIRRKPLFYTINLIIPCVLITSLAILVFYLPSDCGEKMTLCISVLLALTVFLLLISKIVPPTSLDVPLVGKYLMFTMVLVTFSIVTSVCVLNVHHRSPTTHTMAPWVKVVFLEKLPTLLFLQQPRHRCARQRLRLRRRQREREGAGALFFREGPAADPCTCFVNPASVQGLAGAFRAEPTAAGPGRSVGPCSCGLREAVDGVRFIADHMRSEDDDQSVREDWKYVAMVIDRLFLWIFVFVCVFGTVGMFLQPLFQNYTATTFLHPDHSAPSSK
nicotine, sequence (P09483 31-630): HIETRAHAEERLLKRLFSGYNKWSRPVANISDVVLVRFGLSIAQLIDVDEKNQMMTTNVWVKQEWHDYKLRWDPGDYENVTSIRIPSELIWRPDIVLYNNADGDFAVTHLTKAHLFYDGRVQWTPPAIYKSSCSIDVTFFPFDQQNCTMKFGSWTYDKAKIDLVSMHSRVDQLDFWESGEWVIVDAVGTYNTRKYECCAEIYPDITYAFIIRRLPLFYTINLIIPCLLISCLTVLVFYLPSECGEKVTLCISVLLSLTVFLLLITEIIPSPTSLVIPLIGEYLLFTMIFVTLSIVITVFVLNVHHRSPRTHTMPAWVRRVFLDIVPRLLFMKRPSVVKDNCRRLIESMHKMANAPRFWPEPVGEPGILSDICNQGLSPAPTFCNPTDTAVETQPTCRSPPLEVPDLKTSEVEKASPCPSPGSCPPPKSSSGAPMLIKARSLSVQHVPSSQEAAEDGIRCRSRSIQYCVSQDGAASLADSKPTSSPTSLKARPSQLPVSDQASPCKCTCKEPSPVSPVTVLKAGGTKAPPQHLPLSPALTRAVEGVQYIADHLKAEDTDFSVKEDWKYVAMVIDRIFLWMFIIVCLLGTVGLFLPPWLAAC
Procedure: as §1, §2

5-HT7 = 5-HT7 (Homo sapiens, UniProt P34969); experiment: Receptor binding 5-HT7; settings: radioligand [3H]-LSD, read-out: Ki(nM) Compound 1
5-HT7, sequence (P34969 whole entry): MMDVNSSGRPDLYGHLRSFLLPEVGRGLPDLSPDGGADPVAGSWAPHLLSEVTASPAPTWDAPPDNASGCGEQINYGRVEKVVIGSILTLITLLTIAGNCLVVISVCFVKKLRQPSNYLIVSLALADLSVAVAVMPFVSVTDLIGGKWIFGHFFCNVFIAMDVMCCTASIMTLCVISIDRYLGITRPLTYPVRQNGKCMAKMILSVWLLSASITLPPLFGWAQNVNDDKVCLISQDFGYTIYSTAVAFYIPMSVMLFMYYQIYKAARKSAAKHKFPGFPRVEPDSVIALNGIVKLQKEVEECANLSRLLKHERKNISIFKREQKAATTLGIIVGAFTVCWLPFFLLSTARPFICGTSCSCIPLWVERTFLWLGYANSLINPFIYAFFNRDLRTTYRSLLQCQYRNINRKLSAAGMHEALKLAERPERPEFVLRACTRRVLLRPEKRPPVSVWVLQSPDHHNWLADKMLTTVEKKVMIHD
Procedure: as §1, §2

Galanin-GAL1 = Galanin-GAL1 (Homo sapiens, UniProt P47211); experiment: Receptor binding Galanin-GAL1; settings: radioligand [125I]-galanin, read-out: Ki(nM) Compound 1
Procedure: as §1, §2

Dopamine-D3 = Dopamine-D3 (Homo sapiens, UniProt P35462); experiment: Receptor binding Dopamine-D3; settings: radioligand [3H]-spiperone, read-out: Ki(nM) Compound 1
Procedure: as §1, §2

5-HT3 = 5-HT3 (Homo sapiens, UniProt P46098); experiment: Receptor binding 5-HT3; settings: radioligand [3H]-BRL 43694, read-out: Ki(nM) Compound 1
Procedure: as §1, §2

Dopaminereuptake = Dopaminereuptake (Homo sapiens, UniProt Q01959); experiment: Binding Dopamine reuptake; settings: radioligand [3H]-GBR 12935, read-out: Ki(nM) Compound 1
Dopaminereuptake, sequence (Q01959 whole entry): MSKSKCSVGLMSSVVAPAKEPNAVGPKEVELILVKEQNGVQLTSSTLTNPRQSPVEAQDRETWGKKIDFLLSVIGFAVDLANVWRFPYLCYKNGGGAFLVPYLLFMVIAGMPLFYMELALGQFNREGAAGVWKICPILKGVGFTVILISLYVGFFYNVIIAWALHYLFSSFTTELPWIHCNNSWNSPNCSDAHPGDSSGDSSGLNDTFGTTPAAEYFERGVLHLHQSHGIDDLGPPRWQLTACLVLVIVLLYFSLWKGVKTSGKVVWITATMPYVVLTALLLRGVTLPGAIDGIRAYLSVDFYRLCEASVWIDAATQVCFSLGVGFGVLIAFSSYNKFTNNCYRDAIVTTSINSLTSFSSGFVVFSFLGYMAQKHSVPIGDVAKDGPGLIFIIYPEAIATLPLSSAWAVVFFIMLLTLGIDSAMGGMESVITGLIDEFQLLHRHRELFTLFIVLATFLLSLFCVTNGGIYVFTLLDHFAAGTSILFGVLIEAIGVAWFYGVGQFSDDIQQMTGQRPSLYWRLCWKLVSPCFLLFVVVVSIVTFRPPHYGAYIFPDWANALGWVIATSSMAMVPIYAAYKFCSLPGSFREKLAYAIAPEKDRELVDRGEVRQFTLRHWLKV
Procedure: as §1, §2

Work on Nc1cc2cccc(N3CCNCC3)c2oc1=O [Compound 1, 3-amino-8-(1-piperazinyl)-2H-1-benzopyran-2-one] yielded a Ki (Glycine strychn. insens.) of over 10000 nM, a Ki (Dopamine-D4) of over 1000 nM and a Ki (CCR1) of over 1000 nM. For the same molecule, the Ki (CRF) was over 10000 nM, the “GDNF RNA, fold increase compared to vehicle treatment” value (from here on “GDNF RNA, fold increase”) (GDNF; hippocampus) was 1.7 fold and the “GDNF RNA, fold increase” value (GDNF; nucleus accumbens) was 1.5 fold. For the same molecule, the “GDNF RNA, fold increase” value (GDNF; prefrontal cortex) was 1.3 fold, the “GDNF RNA, fold increase” value (GDNF; striatum) was 2.2 fold and the “GDNF RNA, fold increase” value (GDNF; thalamus) was 2.6 fold. It also gave a Ki (5-HTreuptake) of over 1000 nM, a Ki (Vasopressine-V1A) of over 1000 nM and a Ki (5-HT2B) of 320 nM. For the same molecule, the Ki (nicotine) was over 10000 nM, the Ki (5-HT7) was 3.2 nM and the Ki (Galanin-GAL1) was over 1000 nM. It also gave a Ki (Dopamine-D3) of over 1000 nM, a Ki (5-HT3) of 250 nM and a Ki (Dopaminereuptake) of over 1000 nM.
